In PMC9645344, “Serotonin-releasing agents with reduced off-target effects” (Molecular Psychiatry, 2022):

What was measured:
VMATs = assay: VMAT uptake inhibition assay in PC12 cells; assay type: cell-based; details: all at 30 µM, relative to inhibition by 30 µM reserpine
Procedure: VMAT uptake inhibition assays were conducted as previously described, with some modifications. In brief, […] PC12 cells per well were seeded in 24-well plates the day before experimentation. The cells were pretreated with 100 nM nisoxetine and mazindol to inhibit non-specific binding. PC12 cells were then preincubated with 200 µM digitonin to permeabilize membranes and were kept at room temperature on a plate shaker at low velocity for 30 min. Cells were treated with test drugs and shaken for another 10 min. Tritiated substrate (0.05 µM [^3H]5-HT) was added, and the cells incubated on the plate shaker for 30 min. To terminate uptake, cells were transferred into 1.5 ml Eppendorf tubes, centrifuged at 5000 rpm for 5 min. The supernatant was aspirated, cells were washed with cold KHB, recentrifuged and lysed with 200 µl SDS. The solutions were transferred into vials containing 2 ml scintillation cocktail and radioactivity was determined via beta-scintillation counting (Perkin Elmer, Waltham, MA, USA). For analysis, inhibitory potency of test drugs was normalized to uptake inhibition caused by the potent VMAT inhibitor reserpine.

C57BL/6N mice = assay: Open-field test; assay type: in vivo; details: indicated doses (1, 5 and 10 mg kg-1) intraperitoneal, 1 h
Procedure: (§1) All in vivo experiments were performed in adult mice (>6 weeks old). For the photometry and microdialysis experiments, which were carried out in Florida, male C57BL/6J mice from The Jackson Laboratory (Bar Harbor, ME, USA) were group-housed in polycarbonate cages (GM500, Tecniplast, Buguggiate, Italy) with lights on from 7 a.m. to 7 p.m. Food and water were provided ad libitum. Photometry and microdialysis experiments were performed in accordance with a protocol approved by the Institutional Animal Care and Use Committee at Florida Atlantic University. For the behavioral experiments, which were carried out in Vienna, C57BL/6N mice from Charles River (Sulzfeld, Germany) were group-housed in polycarbonate cages with lights on from 7 a.m. to 7 p.m. Food and water were provided ad libitum. Behavioral experiments were performed in accordance with a protocol approved by the Austrian national ethical committee on animal care and use (Bundesministerium für Wissenschaft und Forschung: BMWFW-66.009/0016-WF/V/3b/2015). All animal procedures were conducted in agreement with the ARRIVE guidelines and the U.K. Animal (Scientific Procedures) Act, 1986, and associated guidelines, EU Directive 2010/63/EU for animal experiments. Mice were given at least 1 week to acclimate before being used in any experiments.
For behavioral assays, animals were assigned to treatment groups and injected with test drugs by an unblinded observer.
Mice were placed into an open field arena (27.3 × 27.3 × 27.3 cm) surrounded by infrared beams to track movements. The total distance traveled over 1 h was recorded using Activity Monitor (Med Associates Inc., St. Albans, VT, USA) and interpreted as a measure of the psychostimulant effects. Animal sample size was confirmed using a post hoc analysis of the achieved power using G*Power3.1 [29]. Using a significance level (α) of 0.05 and an effect size f = 1.92 and a sample size of 7.5 animals (5–10)/group we achieved the commonly accepted statistical power (1−β) of 0.8.

[1] = tested on: extracellular 5-HT in the NAc; assay: Fiber photometry with GRAB5-HT sensor in the NAc of freely moving mice; assay type: in vivo; details: for relative GRAB5-HT fluorescence at peak versus saline: t = 700-900 s post injection, drug alone, D-FEN 10, S-4-MC 5, S-4-TFMMC 10 mg kg-1 intraperitoneal
Procedure: as §1
Mice were anesthetized with isoflurane (5% induction, 2% maintenance) and placed into a stereotaxic frame (Kopf Instruments, Tujunga, CA, USA) oriented in the flat skull position. Ophthalmic ointment was applied to prevent drying of the eyes. Ketoprofen (10 mg kg^−1) was administered subcutaneously (s.c.), whereas bupivacaine and lidocaine were administered locally (s.c.; 100 µl of sterile saline containing 0.05% bupivacaine and 0.2% lidocaine) to the surgical site atop the head. A midline incision was made through the skin on the dorsal surface of the head to expose the skull. Fascia was removed, coordinates for the NAc were determined relative to bregma: anterior/posterior = 1.54 mm; medial/lateral = 0.7 mm; dorsal/ventral = −4.1 mm. A 1 mm burr hole was drilled through the skull. […] For the mice used for fiber photometry, 4*10^12 genome copies of AAV9-hSyn-5-HT2h or 10^10 genome copies of AAV-hSyn-DA2m were delivered into the NAc at an infusion rate of 100 nl min^−1 (total volume of 1 µl) using a 34-gauge needle attached to a 10 µl Nanofil microsyringe (Hamilton, Reno, NV, USA), as previously described. Following injection of the virus, an optical fiber was lowered through the burr hole and secured with glass ionomer cement. Three 1.6 mm screws (00-96X1/16 39052, Plastics One Inc., Roanoke, VA, USA) were affixed to the skull to support a cement stage that was created to secure the implanted guide cannulae or optical fiber. Mice were singly housed following surgery and allowed 6 days of recovery for the microdialysis experiments or 21 days for the photometry experiments. Food and water were available ad libitum.
To monitor light emitted from the G-protein coupled receptor-activation-based 5-HT (GRAB5-HT) and DA (GRABDA) sensors, fiber photometry was performed as described. Briefly, a light emitting diode (465 nm) (CLED_465, Doric Lenses, Quebec, QC, Canada), reflected through a dichroic mirror, was coupled to an optical fiber (200 µm core/225 cladding diameter; Thorlabs, Newton, NJ, USA) that was glued to a metal ferrule (Doric Lenses, Quebec, QC, Canada) and implanted into the NAc as described above. Emitted, band-pass filtered light (500–550 nm, FMC6, Doric Lenses, Quebec,QC, Canada) was detected with a photodetector (Newport Femtowatt silicone PIN; New Focus, San Jose, CA, USA). Data were recorded using a RZ5P lock-in amplifier (Tucker-Davis Technologies, Alachua, FL, USA) controlled with Synapse software. Sinusoidal excitation was delivered at 210 Hz by an LED driver Doric Lenses, LEDD_4) at low power mode. A demodulated signal was low-pass filtered at 6 Hz and digitized at 1017 Hz. […]

[2] = tested on: extracellular 5-HT and DA in the NAc; assay: In vivo microdialysis in the NAc of freely moving mice
Procedure: as §1
Mice were anesthetized with isoflurane (5% induction, 2% maintenance) and placed into a stereotaxic frame (Kopf Instruments, Tujunga, CA, USA) oriented in the flat skull position. Ophthalmic ointment was applied to prevent drying of the eyes. Ketoprofen (10 mg kg^−1) was administered subcutaneously (s.c.), whereas bupivacaine and lidocaine were administered locally (s.c.; 100 µl of sterile saline containing 0.05% bupivacaine and 0.2% lidocaine) to the surgical site atop the head. A midline incision was made through the skin on the dorsal surface of the head to expose the skull. Fascia was removed, coordinates for the NAc were determined relative to bregma: anterior/posterior = 1.54 mm; medial/lateral = 0.7 mm; dorsal/ventral = −4.1 mm. A 1 mm burr hole was drilled through the skull. […]
Microdialysis was performed based on a previous publication. […] Dialysate samples were collected on ice and stored at −80 °C until they were analyzed using high-performance liquid chromatography with electrochemical detection. Drug-induced changes in extracellular DA and 5-HT were expressed as fold change compared to basal monoamine levels obtained during the first three pretreatment samples.

[3] = tested on: extracellular DA in the NAc; assay: Fiber photometry with GRABDA sensor in the NAc; assay type: in vivo, mice
Procedure: All in vivo experiments were performed in adult mice (>6 weeks old). For the photometry and microdialysis experiments, which were carried out in Florida, male C57BL/6J mice from The Jackson Laboratory (Bar Harbor, ME, USA) were group-housed in polycarbonate cages (GM500, Tecniplast, Buguggiate, Italy) with lights on from 7 a.m. to 7 p.m. Food and water were provided ad libitum. Photometry and microdialysis experiments were performed in accordance with a protocol approved by the Institutional Animal Care and Use Committee at Florida Atlantic University. […]
Mice were anesthetized with isoflurane (5% induction, 2% maintenance) and placed into a stereotaxic frame (Kopf Instruments, Tujunga, CA, USA) oriented in the flat skull position. […] Fascia was removed, coordinates for the NAc were determined relative to bregma: anterior/posterior = 1.54 mm; medial/lateral = 0.7 mm; dorsal/ventral = −4.1 mm. […]
To monitor light emitted from the G-protein coupled receptor-activation-based 5-HT (GRAB5-HT) and DA (GRABDA) sensors, fiber photometry was performed as described. […] Emitted, band-pass filtered light (500–550 nm, FMC6, Doric Lenses, Quebec,QC, Canada) was detected with a photodetector (Newport Femtowatt silicone PIN; New Focus, San Jose, CA, USA). Data were recorded using a RZ5P lock-in amplifier (Tucker-Davis Technologies, Alachua, FL, USA) controlled with Synapse software. […]

[4] = 5 mg kg-1 with or without fluoxetine 10 mg kg-1, repeated measures two-way ANOVA

| SMILES | inhibition of VMAT-mediated transport compared to MDMA (VMATs) | horizontal locomotor activity (total distance traveled) in the open field test (C57BL/6N mice) | extracellular 5-HT in the NAc (GRAB5-HT fluorescence) ([1]; 5 mg kg-1 intraperitoneal) | 5-HT sensor response on day 1 versus day 2 ([1]; 5 mg kg-1 intraperitoneal, two doses 24 h apart) | extracellular 5-HT in the NAc (GRAB5-HT fluorescence) with co-administered fluoxetine ([1]; 5 mg kg-1 plus fluoxetine 10 mg kg-1 intraperitoneal) | relative GRAB5-HT fluorescence at peak versus saline [1] | dialysate 5-HT versus baseline ([2]; 5 mg kg-1 intraperitoneal, NAc) | effect of drug treatment (alone versus plus fluoxetine) on dialysate 5-HT [2, 4] | effect of drug treatment (alone versus plus fluoxetine) on dialysate DA [2, 4] | basal DA levels in the NAc (GRABDA fluorescence) ([3]; 5 mg kg-1 intraperitoneal) | extracellular 5-HT in the NAc (GRAB5-HT fluorescence) ([1]; 10 mg kg-1 intraperitoneal) | extracellular 5-HT in the NAc (GRAB5-HT fluorescence) with co-administered fluoxetine ([1]; 10 mg kg-1 plus fluoxetine 10 mg kg-1 intraperitoneal) | dialysate 5-HT with co-administered fluoxetine ([2]; 10 mg kg-1 intraperitoneal plus fluoxetine 10 mg kg-1) | basal DA levels in the NAc (GRABDA fluorescence) ([3]; 10 mg kg-1 intraperitoneal) |
| --- | --- | --- | --- | --- | --- | --- | --- | --- | --- | --- | --- | --- | --- | --- |
| Cc1ccc(C(=O)[C@H](C)N)cc1 [S-4-MC, 4-methylcathinone] | significantly less effective | did not differ from vehicle | elevated extracellular 5-HT in the NAc in a time-dependent manner | no significant difference | this effect could be prevented by fluoxetine | Significant effects | significantly elevated 5-HT in the dialysate | drug-treatment significantly affected 5-HT in the dialysate | but not DA | neither S-4-MC, nor S-4-TFMMC significantly elevated the basal DA levels |  |  |  |  |
| CN[C@@H](C)C(=O)c1ccc(C(F)(F)F)cc1 [S-4-TFMMC, 4-trifluoromethyl-N-methylcathinone] | significantly less effective | did not differ from vehicle |  |  |  | Significant effects |  |  |  |  | elevated extracellular 5-HT in the NAc in a time-dependent manner | this effect could be prevented by fluoxetine | fluoxetine markedly blunted the amount of dialysate 5-HT | neither S-4-MC, nor S-4-TFMMC significantly elevated the basal DA levels |
